One experiment has as its target T1, HMG-CoAR (Homo sapiens, UniProt P04035).
T1 construct: the oxidation of NADPH by the catalytic subunit of HMGR in the presence of the substrate of HMG-CoA; purchased Sigma, USA
T1 sequence (P04035 426-888 limits assumed): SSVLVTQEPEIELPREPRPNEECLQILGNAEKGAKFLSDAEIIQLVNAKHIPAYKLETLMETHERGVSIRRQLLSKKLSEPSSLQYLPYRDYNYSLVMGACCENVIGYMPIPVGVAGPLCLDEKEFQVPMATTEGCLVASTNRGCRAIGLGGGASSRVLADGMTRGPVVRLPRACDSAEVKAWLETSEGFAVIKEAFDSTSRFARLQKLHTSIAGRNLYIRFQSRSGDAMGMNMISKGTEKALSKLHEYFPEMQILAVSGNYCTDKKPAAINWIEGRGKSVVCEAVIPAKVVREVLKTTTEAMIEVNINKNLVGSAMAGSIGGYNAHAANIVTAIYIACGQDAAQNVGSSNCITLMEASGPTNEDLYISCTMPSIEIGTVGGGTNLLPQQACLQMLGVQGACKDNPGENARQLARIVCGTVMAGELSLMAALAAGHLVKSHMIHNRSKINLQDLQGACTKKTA
Briefly: In vitro HMG-CoAR activity assay (commercial kit, Sigma; NADPH oxidation at 340 nm). The conditions noted are these: 60 μg/ml. The experiment is classed as biochemical. As for the experimental part: Commercial HMG-CoAR activity assay kit (Sigma, USA) is used in this experiment. The HMG-CoAR activity assay is based on the spectrophotometric measurement of the decrease in absorbance at 340 nm, which represents the oxidation of NADPH by the catalytic subunit of HMGR in the presence of the substrate of HMG-CoA. Pravastatin (Positive control), 7E1 or 7E2 are tested in this assay.
The HMG-CoAR activity was determined by the commercially available in vitro assay kit (Sigma, USA). The protocol of the assay was performed as described in the manufacture's manual. The HMG-CoAR activity assay is based on the spectrophotometric measurement of the decrease in absorbance at 340 nm, which represents the oxidation of NADPH by the catalytic subunit of HMGR in the presence of the substrate of HMG-CoA.
To validate the inhibitory effect of HMG-CoAR activity of compounds 7E1 and 7E2, in vitro HMG-CoAR activity is performed. Commercial HMG-CoAR activity assay kit (Sigma, USA) is used. The HMG-CoAR activity assay is based on the spectrophotometric measurement of the decrease in absorbance at 340 nm, which represents the oxidation of NADPH by the catalytic subunit of HMGR in the presence of the substrate of HMG-CoA. HMG-CoAR inhibitory effect of Pravastatin (Positive control), 7E1 or 7E2 are tested.

Experiment [1] relates to yeast cells lacking HMG1 and HMG2 with HMG1 overexpression plasmid (HMG-CoAR). Briefly: Yeast HMG-CoAR screening assay (yeast cell growth, OD660, with or without mevalonate). The experiment is classed as cell-based, Saccharomyces cerevisiae. The conditions noted are these: for restoration of growth / reduction of inhibitory effect in the presence of mevalonate (compounds from Fraction 7): 300 μg/ml (7E1: 150 μg/ml), with mevalonate; for growth inhibition in the yeast cells: without mevalonate. An excerpt:
The present invention provides a screening method to identify potential HMG-CoAR inhibitors. The present method comprises providing a yeast strain which lacks HMG1 and HMG2 genes but containing a HMG1 overexpression plasmid, contacting said yeast strain with a test material. If the test material can inhibit the HMG1 activity or expression, the yeast cells will die. In order to validate the death of yeast cells is due to inhibition of HMG1 by the test material, the present invention also includes adding mevalonate compound, which is a downstream product of the HMG-CoAR. HMG-CoAR inhibitory activity of the test material is confirmed if the cell viability of the yeast strain is unaffected by the test material in the presence of mevalonate.
Saccharomyces cerevisiae (MATa ade2-101 his3-200 hmg1::LYS2 hmg2:his3 lys2-80 met TRP1 ura3-52 with overexpression of yeast HMG1 containing plasmid) were used in the screening assay. Cells were grown at 30° C. in YEPD, consisting of 10 g/L yeast extract, 20 g/L Bacto-peptone and 20 g/L dextrose.
Yeast cells were grown overnight in YEPD medium to ^˜7.0 OD660 at 30° C. Cells were then subculture to a fresh YEPD medium with starting ^˜0.1 starting OD660 and grew for another 8 hours to ^˜1.2 OD660. The assay was performed in a 96-well plate. 2.7×10^4 cells, tested drugs/chemicals and/or mevalonate were added to each well in a final volume of 100 μl. All experiments were performed in triplicate. Cells were then grown for 16 hours at 30° C. and the inhibitory effect of HMG-CoAR determined by measuring the cell density OD660 of each well by a micro-plate reader. Statin was used as a positive control and mevalonate supplement was used to validate the inhibitory effect of tested compounds on HMG-CoAR.

With `CC(C)=CCC[C@](C)(O[C@@H]1O[C@H](CO[C@@H]2OC[C@@H](O)[C@H](O)[C@H]2O)[C@@H](O)[C@H](O)[C@H]1O)[C@H]1CC[C@]2(C)[C@@H]1[C@H](O)C[C@@H]1[C@@]3(C)CC[C@H](O[C@@H]4O[C@H](CO)[C@@H](O)[C@H](O)[C@H]4O)C(C)(C)[C@@H]3CC[C@]12C` [Compound 7E2, gypenoside IX], at HMG-CoAR, the “inhibition of HMG-CoAR activity in vitro” value is listed as “can inhibit the HMG-CoAR activity”. Besides, the “restoration of growth / reduction of inhibitory effect in the presence of mevalonate (compounds from Fraction 7)” value in experiment [1] was “significant reduction of inhibitory effects”. In experiment [1] (300 μg/ml), the “growth inhibition in the yeast cells” value is listed as 80%.
Consider gypenoside XLV-Ed [Compound 7E1], for which the “inhibition of HMG-CoAR activity in vitro” value against HMG-CoAR is “can inhibit the HMG-CoAR activity”. Moreover, the “growth inhibition in the yeast cells” value in experiment [1] (150 μg/ml) is on record as 65%. Besides, the “restoration of growth / reduction of inhibitory effect in the presence of mevalonate (compounds from Fraction 7)” value in experiment [1] is given as “significant reduction of inhibitory effects”.

Source of the values: patent US20130210752A1, “USING A NOVEL HIGH-THROUGHPUT YEAST CELL-BASED SCREENING PLATFORM TO IDENTIFY HMG-COA REDUCTASE INHIBITORS FROM NATURAL PRODUCTS AND THE USES OF SUCH INHIBITORS THEREOF” (HONG KONG BAPTIST UNIVERSITY, priority 2012, published 2013).
